Consider 18 compounds from patent US9809574B2, “Isoindoline or isoquinoline compounds, a process for their preparation and pharmaceutical compositions containing them” (LES LABORATOIRES SERVIER, priority 2013, dated 2017).

One experiment has as its target Bcl-2 protein (histag-Bcl-2, UniProtKB P10415) (Homo sapiens (Human), UniProt P10415). Description: Inhibition of Bcl-2 by the fluorescence polarisation technique. The experiment is classed as binding. The settings on record: for IC50: fluorescence polarisation test, incubation for 2 hours, read-out: IC50 (nM) Bcl-2 FP. From the text:
For partial inhibitors, the percentage fluorescence polarisation inhibition for a given concentration of the test compound is indicated.

The subject of experiment [1] is RS4; 11 leukaemia cell line. Description: In vitro cytotoxicity, Microculture Tetrazolium Assay (MTT). The experiment is classed as cell-based. To be noted: Homo sapiens, 11 cells exposed for 48 hours. The protocol: The cytotoxicity studies were carried out on the RS4; 11 leukaemia cell line and on H146 small Cell Lung Carcinoma cell line. The cells are distributed onto microplates and exposed to the test compounds for 48 hours. The cell viability is then quantified by a colorimetric assay, the Microculture Tetrazolium Assay (Cancer Res., 1987, 47, 939-942).

The structures appear in SMILES notation. Counter-ions that a name gives are not always drawn.

Chain of Bcl-2 protein (P10415 whole entry): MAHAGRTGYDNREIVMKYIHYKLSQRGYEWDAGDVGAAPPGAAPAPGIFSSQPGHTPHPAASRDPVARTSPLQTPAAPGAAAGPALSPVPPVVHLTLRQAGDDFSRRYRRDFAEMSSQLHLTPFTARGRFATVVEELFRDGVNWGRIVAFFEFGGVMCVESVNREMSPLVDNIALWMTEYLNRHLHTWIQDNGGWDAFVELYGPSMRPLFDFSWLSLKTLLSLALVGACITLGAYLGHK

For `Cc1c(C(=O)N(C)c2ccccc2)cc(-c2cc3c(cc2C(=O)N2Cc4ccccc4C[C@H]2C)CN(C(=O)Oc2ccc(NCCN(C)C)cc2)CC3)n1C` [Example 489, 4-{[2-(Dimethylamino)ethyl]amino}phenyl 6-{1,5-dimethyl-4-[methyl(phenyl)carbamoyl]-1H-pyrrol-2-yl}-7-[(3R)-3-methyl-1,2,3,4-tetrahydroisoquinoline-2-carbonyl]-1,2,3,4-tetrahydroisoquinoline-2-carboxylate], the results for the IC50 (on Bcl-2 protein; in experiment [1]) were 3.2 nM and 68 nM, respectively.
Take `Cc1c(C(=O)N(C)c2ccc(O)cc2)cc(-c2cc3c(cc2C(=O)N2Cc4ccccc4C[C@H]2CN2CCOCC2)CN(C(=O)Oc2ccc4cc[nH]c4c2)CC3)n1C` [Example 575, 1H-Indol-6-yl 6-{4-[(4-hydroxyphenyl)(methyl)carbamoyl]-1,5-dimethyl-1H-pyrrol-2-yl}-7-[(3S)-3-(morpholin-4-ylmethyl)-1,2,3,4-tetrahydroisoquinoline-2-carbonyl]-1,2,3,4-tetrahydroisoquinoline-2-carboxylate]: the IC50 on Bcl-2 protein turned out to be 6.3 nM; in experiment [1] it was 12 nM.
Consider `Cc1c(C(=O)N(C)c2ccc(O)cc2)cc(-c2cc3c(cc2C(=O)N2Cc4ccccc4C[C@H]2CCN2CCOCC2)CN(C(=O)Oc2ccccc2)CC3)n1C` [Example 216, Phenyl 6-{4-[(4-hydroxyphenyl)(methyl)carbamoyl]-1,5-dimethyl-1H-pyrrol-2-yl}-7-[(3S)-3-[2-(morpholin-4-yl)ethyl]-1,2,3,4-tetrahydroisoquinoline-2-carbonyl]-1,2,3,4-tetrahydroisoquinoline-2-carboxylate], for which the IC50 on Bcl-2 protein turned out to be 2.4 nM; in experiment [1], 2.9 nM.
The matching figures for `Cc1c(C(=O)N(C)c2ccc(O)cc2)cc(-c2cc3c(cc2C(=O)N2Cc4ccccc4C[C@H]2C)CN(C(=O)Oc2ccccc2)CC3)n1C` [Example 68, Phenyl 6-{4-[(4-hydroxyphenyl)(methyl)carbamoyl]-1,5-dimethyl-1H-pyrrol-2-yl}-7-[(3R)-3-methyl-1,2,3,4-tetrahydroisoquinoline-2-carbonyl]-1,2,3,4-tetrahydroisoquinoline-2-carboxylate]: 2.9 nM and 1.8 nM.
For the compound `Cc1c(C(=O)N(C)c2ccccc2)cc(-c2cc3c(cc2C(=O)N2Cc4ccccc4C[C@H]2C)CNCC3)n1C` [Example 119, N,1,2-Trimethyl-5-{7-[(3R)-3-methyl-1,2,3,4-tetrahydroisoquinoline-2-carbonyl]-1,2,3,4-tetrahydroisoquinolin-6-yl}-N-phenyl-1H-pyrrole-3-carboxamide hydrochloride], the values for the IC50 (at Bcl-2 protein; in experiment [1]) were 622 nM and above 150 nM, respectively.
Regarding `C[C@@H]1Cc2ccccc2CN1C(=O)c1cc2c(cc1-c1cc(C(=O)N(C)c3ccc(O)cc3)c3n1CCCC3)CN(Cc1ccccc1)C2` [Example 33, 3-{2-Benzyl-6-[(3R)-3-methyl-1,2,3,4-tetrahydroisoquinoline-2-carbonyl]-2,3-dihydro-1H-isoindol-5-yl}-N-(4-hydroxyphenyl)-N-methyl-5,6,7,8-tetrahydroindolizine-1-carboxamide], the IC50 at Bcl-2 protein stood at 33 nM; in experiment [1], 460 nM.
On to `C[C@@H]1Cc2ccccc2CN1C(=O)c1cc2c(cc1-c1cc(C(=O)N(C)c3ccc(O)cc3)c3n1CCCC3)CN(C(=O)COc1ccccc1Cl)C2` [Example 86, 3-{2-[2-(2-Chlorophenoxy)acetyl]-6-[(3R)-3-methyl-1,2,3,4-tetrahydroisoquinoline-2-carbonyl]-2,3-dihydro-1H-isoindol-5-yl}-N-(4-hydroxyphenyl)-N-methyl-5,6,7,8-tetrahydroindolizine-1-carboxamide], for which the IC50 on Bcl-2 protein amounted to 5.5 nM; in experiment [1], 60 nM.
For `CN(C(=O)c1cc(-c2cc3c(cc2C(=O)N2Cc4ccccc4C[C@H]2CN2CCOCC2)CN(C(=O)Oc2ccccc2)C3)n2c1CCCC2)c1ccc(O)cc1` [Example 16, Phenyl 5-{1-[(4-hydroxyphenyl)(methyl)carbamoyl]-5,6,7,8-tetrahydroindolizin-3-yl}-6-[(3S)-3-(morpholin-4-ylmethyl)-1,2,3,4-tetrahydroisoquinoline-2-carbonyl]-2,3-dihydro-1H-isoindole-2-carboxylate hydrochloride] the same measures were 6 nM and 27 nM.
With `CN(C(=O)c1cc(-c2cc3c(cc2C(=O)N2Cc4ccccc4C[C@H]2CN2CCOCC2)CNC3)n2c1CCCC2)c1ccc(O)cc1` [Example 7, N-(4-Hydroxyphenyl)-N-methyl-3-{6-[(3S)-3-(morpholin-4-ylmethyl)-1,2,3,4-tetrahydroisoquinoline-2-carbonyl]-2,3-dihydro-1H-isoindol-5-yl}-5,6,7,8-tetrahydroindolizine-1-carboxamide; dihydrochloride salt], the inhibition at 3.3 µM on Bcl-2 protein (partial inhibitor, concentration of test compound 3.3 μM, read-out: percentage fluorescence polarisation inhibition (Bcl-2 FP)) was 72%. In experiment [1], this compound showed an IC50 of 1080 nM.
As for `CCN(C(=O)c1cc(-c2cc3c(cc2C(=O)N2Cc4ccccc4C[C@H]2CN2CCOCC2)CN(C(=O)Oc2ccccc2)CC3)n(C)c1C)c1ccc(O)cc1` [Example 185, Phenyl 6-{4-[ethyl(4-hydroxyphenyl)carbamoyl]-1,5-dimethyl-1H-pyrrol-2-yl}-7-[(3S)-3-(morpholin-4-ylmethyl)-1,2,3,4-tetrahydroisoquinoline-2-carbonyl]-1,2,3,4-tetrahydroisoquinoline-2-carboxylate], the values for the IC50 (on Bcl-2 protein; in experiment [1]) were 3.7 nM and 4.5 nM, respectively.
Take `CN(C(=O)c1cc(-c2cc3c(cc2C(=O)N2Cc4ccccc4C[C@H]2CN2CCOCC2)CN(S(=O)(=O)c2ccccc2)C3)n2c1CCCC2)c1ccc(O)cc1` [Example 19, 3-[2-(Benzenesulfonyl)-6-[(3S)-3-(morpholin-4-ylmethyl)-1,2,3,4-tetrahydroisoquinoline-2-carbonyl]-2,3-dihydro-1H-isoindol-5-yl]-N-(4-hydroxyphenyl)-N-methyl-5,6,7,8-tetrahydroindolizine-1-carboxamide hydrochloride]: the IC50 worked out at 47 nM at Bcl-2 protein and 774 nM in experiment [1].
In the case of `Cc1c(C(=O)N(C)c2ccc(O)cc2)cc(-c2cc3c(cc2C(=O)N2Cc4ccccc4C[C@H]2CN2CCOCC2)CN(C(=O)CC2CCCCC2)CC3)n1C` [Example 794, 5-[2-(2-Cyclohexylacetyl)-7-[(3S)-3-(morpholin-4-ylmethyl)-1,2,3,4-tetrahydroisoquinoline-2-carbonyl]-1,2,3,4-tetrahydroisoquinolin-6-yl]-N-(4-hydroxyphenyl)-N,1,2-trimethyl-1H-pyrrole-3-carboxamide], the results for the IC50 (on Bcl-2 protein; in experiment [1]) were 4.6 nM and 70 nM, respectively.
On to `C[C@@H]1Cc2ccccc2CN1C(=O)c1cc2c(cc1-c1cc(C(=O)N(C)c3ccc(O)cc3)c3n1CCCC3)CN(C(=O)NC(C)(C)C)C2` [Example 76, N-tert-Butyl-5-{1-[(4-hydroxyphenyl)(methyl)carbamoyl]-5,6,7,8-tetrahydroindolizin-3-yl}-6-[(3R)-3-methyl-1,2,3,4-tetrahydroisoquinoline-2-carbonyl]-2,3-dihydro-1H-isoindole-2-carboxamide], for which the IC50 on Bcl-2 protein is 24 nM; in experiment [1], above 150 nM.
With `C[C@@H]1Cc2ccccc2CN1C(=O)c1cc2c(cc1-c1cc(C(=O)N(C)c3ccc(O)cc3)c3n1CCCC3)CN(C(=O)N1CC(c3ccccc3)C1)C2` [Example 83, N-(4-Hydroxyphenyl)-N-methyl-3-{6-[(3R)-3-methyl-1,2,3,4-tetrahydroisoquinoline-2-carbonyl]-2-(3-phenylazetidine-1-carbonyl)-2,3-dihydro-1H-isoindol-5-yl}-5,6,7,8-tetrahydroindolizine-1-carboxamide], the IC50 stood at 15 nM on Bcl-2 protein and 122 nM in experiment [1].
For `Cc1c(C(=O)N(C)c2ccc(O)cc2)cc(-c2cc3c(cc2C(=O)N2Cc4ccccc4C[C@H]2C)CN(C(=O)Oc2ccccc2CCC(=O)N(C)C)CC3)n1C` [Example 775, 2-[2-(Dimethylcarbamoyl)ethyl]phenyl 6-{4-[(4-hydroxyphenyl)(methyl)carbamoyl]-1,5-dimethyl-1H-pyrrol-2-yl}-7-[(3R)-3-methyl-1,2,3,4-tetrahydroisoquinoline-2-carbonyl]-1,2,3,4-tetrahydroisoquinoline-2-carboxylate], the IC50 at Bcl-2 protein was 2.4 nM; in experiment [1] it was 6.3 nM.
As for `Cc1c(C(=O)N(C)c2ccc(O)cc2)cc(-c2cc3c(cc2C(=O)N2Cc4ccccc4C[C@H]2C)CN(C(=O)NC2CCCCC2)CC3)n1C` [Example 792, N-Cyclohexyl-6-{4-[(4-hydroxyphenyl)(methyl)carbamoyl]-1,5-dimethyl-1H-pyrrol-2-yl}-7-[(3R)-3-methyl-1,2,3,4-tetrahydroisoquinoline-2-carbonyl]-1,2,3,4-tetrahydroisoquinoline-2-carboxamide], the IC50 is 4.6 nM on Bcl-2 protein and 21 nM in experiment [1].
Consider `Cc1c(C(=O)N(C)c2ccc(O)cc2)cc(-c2cc3c(cc2C(=O)N2Cc4ccccc4C[C@H]2C)CN(C(=O)C(C)Oc2ccccc2)C3)n1C` (stereo partly drawn) [Example 104, N-(4-hydroxyphenyl)-N,1,2-trimethyl-5-{6-[(3R)-3-methyl-1,2,3,4-tetrahydroisoquinoline-2-carbonyl]-2-(2-phenoxypropanoyl)-2,3-dihydro-1H-isoindol-5-yl}-1H-pyrrole-3-carboxamide], for which the IC50 at Bcl-2 protein stood at 6.7 nM; in experiment [1], 65 nM.
For the compound `CC(=O)N(C)c1ccc(OC(=O)N2CCc3cc(-c4cc(C(=O)N(C)c5ccc(O)cc5)c(C)n4C)c(C(=O)N4Cc5ccccc5C[C@H]4CN4CCOCC4)cc3C2)cc1` [Example 803, 4-(N-Methylacetamido)phenyl 6-{4-[(4-hydroxyphenyl)(methyl)carbamoyl]-1,5-dimethyl-1H-pyrrol-2-yl}-7-[(3S)-3-(morpholin-4-ylmethyl)-1,2,3,4-tetrahydroisoquinoline-2-carbonyl]-1,2,3,4-tetrahydroisoquinoline-2-carboxylate], the IC50 was determined as 4.6 nM on Bcl-2 protein and 37 nM in experiment [1].
